The values that follow come from publication PMC9124699 (International Journal of Nanomedicine, 2022).

One may read the log P as the decadic logarithm of the partition coefficient of the neutral form, usually between octanol and water. By Solubility is commonly meant the concentration that dissolves in the medium under given conditions.

Read-outs that look alike come from different tables or passages of the source. Where only a bound is given, the exact number is not on record here.

For data set [1] the following is noted: no reference given, cited from earlier work.
The conditions of data set [2]: 1 mg intravenous administration; no reference given; cited from earlier work.
For data set [3] the following is noted: no reference given, cited from earlier work. This is another data set of the same source.
A short description of data set [4]: Degradation of LEU and L18FCs and conversion to LEU in human plasma. The data set is classed as in vitro ADME.

Take `CCCCC/C=C\C/C=C\CCCCCCCC(=O)O` [Linoleic acid]: the “log P” value in data set [1] (C18 fatty acids, Table 2) is listed as 7.05. As for leuprolide acetate [LEU acetate], in data set [2], the Half life was 3 h. The “log P” value in data set [1] (LEU acetate, Table 1) was −2.7–1.07. In data set [3] (in water), the Solubility is reported as ≥ 66.66 mg/mL (52.51 mM) in water. In the case of `CCNC(=O)[C@@H]1CCCN1C(=O)[C@H](CCCNC(=N)N)NC(=O)[C@H](CC(C)C)NC(=O)[C@@H](CC(C)C)NC(=O)[C@H](Cc1ccc(O)cc1)NC(=O)[C@H](CO)NC(=O)[C@H](Cc1c[nH]c2ccccc12)NC(=O)[C@H](Cc1c[nH]cn1)NC(=O)[C@@H]1CCC(=O)N1` [LEU, leuprolide], in data set [4], the metabolised at 840 h, 1 mg/mL is ~45.8%. The “Solubility in phosphate buffered solution (PBS)” value in data set [3] (PBS, introduction statement) is “approximately 10 mg/mL”.

For the compound `CCCCCCCCCCCCCCCCCC(=O)O` [Stearic acid], the “log P” value in data set [1] (C18 fatty acids, Table 2) was 8.23. Consider `CCCCCCCC/C=C\CCCCCCCC(=O)O` [Oleic acid], for which the “log P” value in data set [1] (C18 fatty acids, Table 2) is listed as 7.64.
